Experiment [1] addresses T1, PVA-nitrate immobilized laccase (Cyathus bulleri, UniProt A8W7J6).
T1 sequence (A8W7J6 17-513): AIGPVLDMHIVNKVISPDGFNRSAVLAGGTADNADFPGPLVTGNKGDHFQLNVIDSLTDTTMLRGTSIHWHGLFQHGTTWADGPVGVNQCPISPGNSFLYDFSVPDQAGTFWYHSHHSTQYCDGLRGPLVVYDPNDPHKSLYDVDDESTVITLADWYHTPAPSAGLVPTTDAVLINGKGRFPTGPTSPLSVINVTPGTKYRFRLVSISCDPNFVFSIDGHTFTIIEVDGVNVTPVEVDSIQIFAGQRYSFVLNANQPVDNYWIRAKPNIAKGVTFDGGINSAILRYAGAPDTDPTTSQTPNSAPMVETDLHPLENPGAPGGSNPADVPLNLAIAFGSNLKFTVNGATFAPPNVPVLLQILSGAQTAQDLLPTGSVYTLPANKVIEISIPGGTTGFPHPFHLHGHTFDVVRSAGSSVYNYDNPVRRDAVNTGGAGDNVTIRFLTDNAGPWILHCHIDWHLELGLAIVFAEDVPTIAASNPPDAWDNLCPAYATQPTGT
Kind of experiment: Laccase assay with inhibitors and ABTS kinetics, immobilized enzyme. The conditions noted are these: 1 h pre-incubation. The experiment is classed as biochemical.

Another experiment deals with T2, Free laccase (Cyathus bulleri, UniProt A8W7J6).
T2 sequence (A8W7J6 17-513): T1 sequence (A8W7J6 17-513)
Kind of experiment: Laccase assay with inhibitors and ABTS kinetics, free enzyme. The experiment is classed as biochemical. The conditions noted are these: 1 h pre-incubation.

By IC50 is commonly meant the concentration needed to halve the response being measured.

As for `[N-]=[N+]=[N-]` [sodium azide], the concentration for half-maximal inhibition (IC50) in experiment [1] stood at 6 ± 0.3 µM; at Free laccase it was 5 ± 0.5 µM.

Values taken from PMC4415393, “Immobilized laccase mediated dye decolorization and transformation pathway of azo dye acid red 27” (Journal of Environmental Health Science and Engineering, 2015).
